This passage reports IC50 results from patent publication US20220251036A1, “DIFLUOROHALOALLYLAMINE SULFONE DERIVATIVE INHIBITORS OF LYSYL OXIDASES, METHODS OF PREPARATION, AND USES THEREOF” (PHARMAXIS LTD., priority 2019, published 2022).

Like-named read-outs stand apart in the source and are kept apart here.

What all share (format): biochemical
In assay [1] the target is T1, Human recombinant LOXL3 (Homo sapiens, UniProt P58215).
T1 sequence (P58215 26-753): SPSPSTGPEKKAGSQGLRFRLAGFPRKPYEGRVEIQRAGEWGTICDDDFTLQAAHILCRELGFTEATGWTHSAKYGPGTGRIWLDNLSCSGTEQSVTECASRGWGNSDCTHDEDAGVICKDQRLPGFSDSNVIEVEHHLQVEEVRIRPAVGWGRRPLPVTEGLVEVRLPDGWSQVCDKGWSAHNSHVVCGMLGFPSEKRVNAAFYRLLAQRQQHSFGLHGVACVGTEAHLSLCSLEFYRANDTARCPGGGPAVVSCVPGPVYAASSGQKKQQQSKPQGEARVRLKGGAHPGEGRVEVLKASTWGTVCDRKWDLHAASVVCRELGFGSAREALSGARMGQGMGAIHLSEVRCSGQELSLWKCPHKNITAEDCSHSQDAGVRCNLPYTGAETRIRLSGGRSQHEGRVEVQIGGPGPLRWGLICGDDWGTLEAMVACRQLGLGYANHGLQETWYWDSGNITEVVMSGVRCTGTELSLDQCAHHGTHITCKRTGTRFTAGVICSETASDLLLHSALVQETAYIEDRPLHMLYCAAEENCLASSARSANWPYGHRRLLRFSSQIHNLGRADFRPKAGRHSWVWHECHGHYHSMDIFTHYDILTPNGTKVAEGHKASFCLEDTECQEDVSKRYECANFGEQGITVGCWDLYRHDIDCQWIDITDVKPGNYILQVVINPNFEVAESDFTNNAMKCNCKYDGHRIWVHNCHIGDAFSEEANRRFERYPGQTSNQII
The assay is described as follows: LOXL3 inhibition, Amplex Red oxidation assay. As to the method:
(§1) LOX and LOXL protein family members can be acquired as recombinant active proteins from commercial sources, or extracted from animal tissues like bovine aorta, tendons, pig skin; or prepared from cell cultures. […] The assay was developed using either 384 or 96 well format. Briefly, in a standard black, clear bottom 384 well plate assay 25 μL of a dilution of any of the isoenzymes and orthologues in 1.2 M urea, 50 mM sodium borate buffer (pH 8.2) were added into each well in the presence of 1 μM mofegiline and 0.5 mM pargyline (to inhibit SSAO and MAO-B and MAO-A, respectively; not necessary if the enzyme is from a recombinant or purified form). Test compounds were dissolved in DMSO and tested in a Concentration Response Curve (CRC) with 11 data points, typically in the micromolar or nanomolar range after incubation with the enzyme for 30 min at 37° C. 25 μL of a reaction mixture containing twice the KM concentration of putrescine (Sigma Aldrich, e.g. 20 mM for LOX and LOXL1 or 10 mM for LOXL2 and 4 mM for LOXL3 and LOXL4), 120 μM Amplex Red (Sigma Aldrich) and 1.5 U/mL horseradish peroxidase (Sigma Aldrich) prepared in 1.2 M urea, 50 mM sodium borate buffer (pH 8.2) were then added to the corresponding wells. The above volumes were doubled in the case of 96 wells plate. The fluorescence (RFU) was read every 2.5 min for 30 min at […] 37° C., excitation 565 nm and emission 590 (Optima; BMG labtech). The slope of the kinetics for each well was calculated using MARS data analysis software (BMG labtech) and this value was used to deduce the IC50 value (Dotmatics). The ability of the inventive compounds to inhibit the amine oxidase activity of LOX and other family members is shown in Table 4.

Assay [2] deals with T2, Human recombinant LOXL1 (Homo sapiens, UniProt Q08397).
T2 sequence (Q08397 96-574): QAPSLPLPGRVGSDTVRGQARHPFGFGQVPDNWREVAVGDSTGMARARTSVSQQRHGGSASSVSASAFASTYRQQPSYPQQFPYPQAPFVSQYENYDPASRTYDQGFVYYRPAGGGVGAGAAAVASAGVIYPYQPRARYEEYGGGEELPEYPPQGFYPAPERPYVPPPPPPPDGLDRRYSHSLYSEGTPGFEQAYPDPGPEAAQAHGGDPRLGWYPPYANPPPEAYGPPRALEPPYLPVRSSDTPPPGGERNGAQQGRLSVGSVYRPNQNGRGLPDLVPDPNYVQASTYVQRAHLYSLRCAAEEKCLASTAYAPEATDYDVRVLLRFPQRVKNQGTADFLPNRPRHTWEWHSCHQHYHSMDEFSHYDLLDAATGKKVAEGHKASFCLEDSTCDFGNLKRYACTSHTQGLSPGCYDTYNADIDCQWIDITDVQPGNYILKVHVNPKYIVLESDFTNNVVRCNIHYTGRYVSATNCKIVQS
The assay can be described thus: LOXL1 inhibition, Amplex Red oxidation assay. As to the method: as §1

The target in assay [3] is T3, Bovine LOX (Bos taurus, UniProt P33072).
T3 sequence (P33072 170-418): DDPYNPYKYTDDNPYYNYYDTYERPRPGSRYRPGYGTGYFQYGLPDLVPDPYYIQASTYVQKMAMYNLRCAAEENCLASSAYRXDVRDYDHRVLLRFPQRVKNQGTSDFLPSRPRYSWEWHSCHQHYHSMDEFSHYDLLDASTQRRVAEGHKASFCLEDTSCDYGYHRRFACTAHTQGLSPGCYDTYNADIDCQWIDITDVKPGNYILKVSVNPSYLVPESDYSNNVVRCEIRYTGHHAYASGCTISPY
The assay is described as follows: LOX inhibition, Amplex Red oxidation assay. On the procedure: as §1

For assay [4], the target named is T4, Human recombinant LOXL2 (Homo sapiens, UniProt Q9Y4K0).
T4 sequence (Q9Y4K0 26-774): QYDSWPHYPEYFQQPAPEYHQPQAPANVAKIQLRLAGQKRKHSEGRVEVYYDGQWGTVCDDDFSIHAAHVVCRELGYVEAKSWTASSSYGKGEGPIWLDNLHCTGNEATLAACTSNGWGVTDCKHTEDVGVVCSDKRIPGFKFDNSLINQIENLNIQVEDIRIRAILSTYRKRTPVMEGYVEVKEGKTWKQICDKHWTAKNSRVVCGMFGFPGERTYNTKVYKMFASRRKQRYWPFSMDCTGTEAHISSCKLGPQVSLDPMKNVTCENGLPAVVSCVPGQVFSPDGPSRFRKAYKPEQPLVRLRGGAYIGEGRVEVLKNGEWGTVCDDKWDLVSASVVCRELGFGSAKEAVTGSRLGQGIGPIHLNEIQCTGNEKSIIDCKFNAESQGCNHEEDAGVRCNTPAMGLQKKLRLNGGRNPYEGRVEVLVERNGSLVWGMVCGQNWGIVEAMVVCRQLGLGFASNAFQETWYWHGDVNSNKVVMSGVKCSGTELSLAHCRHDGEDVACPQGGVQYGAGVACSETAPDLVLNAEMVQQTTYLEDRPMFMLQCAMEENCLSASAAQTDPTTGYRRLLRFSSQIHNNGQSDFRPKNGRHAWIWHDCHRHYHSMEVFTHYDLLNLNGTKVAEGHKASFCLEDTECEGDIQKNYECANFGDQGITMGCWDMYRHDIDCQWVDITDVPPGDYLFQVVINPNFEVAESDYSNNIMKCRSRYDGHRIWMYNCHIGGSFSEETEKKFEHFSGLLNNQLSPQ
The assay can be described thus: LOXL2 inhibition, Amplex Red oxidation assay. As to the method: as §1

The mark [5] stands for this setting: incubation with enzyme 30 min at 37° C, read-out: Human recombinant LOXL3 Activity IC50.
[6] abbreviates: incubation with enzyme 30 min at 37° C, read-out: Human recombinant LOXL1 Activity IC50.
Where [7] appears, read: incubation with enzyme 30 min at 37° C, read-out: Bovine LOX Activity IC50.
The mark [8] stands for this setting: incubation with enzyme 30 min at 37° C, read-out: Human recombinant LOXL2 Activity IC50.

As for `CNc1ccccc1S(=O)(=O)C(F)(F)/C(F)=C/CN` [Compound 4, (Z)-2-((4-amino-1,1,2-trifluorobut-2-en-yl)sulfony1)-N-methylaniline], the IC50 (as a rule, the midpoint of a concentration-inhibition curve) in assay [1] (setting [5]) came out at 7400 nM; in assay [2] (setting [6]) it was 4800 nM; in assay [3] (setting [7]), 4300 nM; in assay [4] (setting [8]), 1000 nM.
On the same counts, the results for `NC/C=C(\F)C(F)(F)[S+]([O-])c1ccccc1` (centres unmarked) [Compound 9, (Z)-3,4,4-trifluoro-4-(phenylsulfinyl)but-2-en-1-amine] are 5200 nM, 8700 nM, 6500 nM and 1400 nM.
On the same counts, the results for `NC/C=C(\F)C(F)(F)S(=O)(=O)Cc1ccccc1` [Compound 8, (Z)-4-(benzylsulfony1)-3,4,4-trifluorobut-2-en-1-amine] are 1000 nM, 3100 nM, 2500 nM and 300 nM.
The matching figures for `N#CCCN` [BAPN, β-aminopropionitrile, reference compound]: 500 nM, 2500 nM, 2200 nM and 400 nM.
As for `NC/C=C(\F)C(F)(F)S(=O)(=O)C1CCCC1` [Compound 19, (Z)-4-(cyclopentylsulfony1)-3,4,4-trifluorobut-2-en-1-amine], the IC50 came out at 1300 nM in assay [1] (setting [5]), 4300 nM in assay [2] (setting [6]), 2500 nM in assay [3] (setting [7]) and 500 nM in assay [4] (setting [8]).
`Cc1ccccc1S(=O)(=O)C(F)(F)/C(F)=C/CN` [Compound 5, (Z)-3,4,4-trifluoro-4-(o-tolylsulfonyl)but-2-en-1-amine]: the values for the IC50 in assay [3] (setting [7]) and in assay [4] (setting [8]) were 3800 nM and 500 nM, respectively.
With `NC/C=C(\F)C(F)(F)S(=O)(=O)c1cccs1` [Compound 14, (Z)-3,4,4-trifluoro-4-(thiophen-2-ylsulfonyl)but-2-en-1-amine], the IC50 in assay [1] (setting [5]) worked out at 1200 nM; in assay [2] (setting [6]), 7000 nM; in assay [3] (setting [7]) it was 4500 nM; in assay [4] (setting [8]), 300 nM.
The matching figures for `COc1cccc(S(=O)(=O)C(F)(F)/C(F)=C/CN)c1` [Compound 12, (Z)-3,4,4-trifluoro-4-((3-methoxyphenyl)sulfonyl)but-2-en-1-amine]: 2700 nM, 7400 nM, 5100 nM and 600 nM.
`NC/C=C(\F)C(F)(F)S(=O)(=O)c1ccccc1` [Compound 1, (Z)-3,4,4-trifluoro-4-(phenylsulfonyl)but-2-en-1-amine]: the 50% inhibitory concentration (IC50) in assay [1] worked out at 1500 nM; in assay [2], 3400 nM; in assay [3], 3700 nM; in assay [4] it was 400 nM.
`Cc1ccc(S(=O)(=O)C(F)(F)/C(F)=C/CN)cc1` [Compound 6, (Z)-3,4,4-trifluoro-4-tosylbut-2-en-1-amine]: the IC50 in assay [1] (setting [5]) worked out at 1800 nM; in assay [2] (setting [6]), 5100 nM; in assay [3] (setting [7]), 3500 nM; in assay [4] (setting [8]), 500 nM.
On the same counts, the results for `CS(=O)(=O)c1cccc(CS(=O)(=O)C(F)(F)/C(F)=C/CN)c1` [Compound 17, (Z)-3,4,4-trifluoro-4-((3-(methylsulfonyl)benzyl)sulfonyl)but-2-en-1-amine] are 800 nM, 4600 nM, 3500 nM and 400 nM.
On the same counts, the results for `CS(=O)(=O)c1ccc(COc2ccccc2S(=O)(=O)C(F)(F)/C(F)=C/CN)cc1` [Compound 10, (Z)-3,4,4-trifluoro-4-((2-((4-(methylsulfonyl)benzyl)oxy)phenyl)sulfonyl) but-2-en-1-amine] are 1500 nM, 2000 nM, 2700 nM and 100 nM.
On the same counts, the results for `NC/C=C(\F)C(F)(F)S(=O)(=O)c1cccc2cccnc12` [Compound 2, (Z)-3,4,4-trifluoro-4-(quinolin-8-ylsulfonyl)but-2-en-1-amine] are 16400 nM, 13400 nM, 8000 nM and 1800 nM.
